Assay results published in ChEMBL document CHEMBL4420076, “Amylin and calcitonin receptor agonist” (2017).
pEC50, pIC50: −log10 of the molar value. Numbered stars: 1 amine (or outer) side, 2 acyl side, 3 side chain; on linkers, the order of the positions; unused ones are H or OH. Peptide text beside a SMILES is read from it. * marks the point of attachment. C20 diacid = O=C(O)CCCCCCCCCCCCCCCCCCC(=O)*; C18 diacid = O=C(O)CCCCCCCCCCCCCCCCC(=O)*; γGlu = O=C(O)[C@H](CCC(=O)[*:2])N[*:1]

Key:
[1] = Solubility in 100 mM glycylglycine buffer at pH 4.0 incubated for 18 hrs by UPLC analysis; format: physicochemical
[2] = Solubility in 100 mM glycylglycine buffer at pH 3.0 incubated for 18 hrs by UPLC analysis; format: physicochemical
Calcitonin receptor [3] = molecular target: T1, Calcitonin receptor (Homo sapiens, UniProt P30988); test: Agonist activity at human calcitonin receptor expressed in BHK570 cells assessed as increase in intracellular cAMP concentration incubated for 3 hrs in absence of albumin by CRE luciferase reporter gene assay; format: functional, cell-based
T1 sequence (P30988 whole entry): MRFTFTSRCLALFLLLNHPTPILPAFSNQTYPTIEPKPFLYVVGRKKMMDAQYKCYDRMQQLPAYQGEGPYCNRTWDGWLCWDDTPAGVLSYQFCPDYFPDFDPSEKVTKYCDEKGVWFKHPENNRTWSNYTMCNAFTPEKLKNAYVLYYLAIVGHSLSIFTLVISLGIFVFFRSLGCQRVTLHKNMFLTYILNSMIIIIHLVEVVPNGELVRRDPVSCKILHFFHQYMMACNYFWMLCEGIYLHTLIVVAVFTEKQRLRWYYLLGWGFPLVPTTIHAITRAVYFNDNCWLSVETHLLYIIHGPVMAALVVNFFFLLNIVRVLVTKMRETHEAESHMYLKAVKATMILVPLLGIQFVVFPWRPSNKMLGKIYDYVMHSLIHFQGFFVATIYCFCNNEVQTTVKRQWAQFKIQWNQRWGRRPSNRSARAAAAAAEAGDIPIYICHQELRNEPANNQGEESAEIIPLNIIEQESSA

[4] = Solubility in 100 mM bistrispropane buffer at pH 6.0 incubated for 18 hrs by UPLC analysis; format: physicochemical
[5] = molecular target: T2, Amylin receptor AMY3; CALCR/RAMP3 (Homo sapiens, UniProt O60896+P30988); test: Displacement of [125I]-labeled rat amylin from human amylin receptor expressed in BHK tkts13 whole cells co-expressing RAMP3 incubated for 60 mins by scintillation proximity assay; format: cell-based
T2 sequence (P30988 whole entry): T1 sequence (P30988 whole entry)
T2 sequence (O60896 whole entry): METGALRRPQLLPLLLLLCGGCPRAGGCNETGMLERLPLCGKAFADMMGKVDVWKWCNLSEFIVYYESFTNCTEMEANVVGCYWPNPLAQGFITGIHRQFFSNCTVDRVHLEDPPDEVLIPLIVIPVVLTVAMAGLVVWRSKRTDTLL

[6] = Solubility in 100 mM bistrispropane buffer at pH 7.0 incubated for 18 hrs by UPLC analysis; format: physicochemical
[7] = Solubility in 100 mM glycylglycine buffer at pH 5.0 incubated for 18 hrs by UPLC analysis; format: physicochemical
Calcitonin receptor [8] = molecular target: T1, Calcitonin receptor; test: Agonist activity at human calcitonin receptor expressed in BHK570 cells assessed as increase in intracellular cAMP concentration incubated for 3 hrs in presence of 10% FBS by CRE luciferase reporter gene assay; format: functional, cell-based
[9] = Solubility in 100 mM bistrispropane buffer at pH 6.5 incubated for 18 hrs by UPLC analysis; format: physicochemical
[10] = Solubility in 100 mM bistrispropane buffer at pH 7.5 incubated for 18 hrs by UPLC analysis; format: physicochemical
[11] = Solubility in 100 mM bistrispropane buffer at pH 8.0 incubated for 18 hrs by UPLC analysis; format: physicochemical
[12] = molecular target: T2, Amylin receptor AMY3; CALCR/RAMP3; test: Agonist activity at human amylin receptor expressed in BHK570 cells co-expressing RAMP3 assessed as increase in intracellular cAMP concentration incubated for 3 hrs in absence of albumin by CRE luciferase reporter gene assay; format: functional, cell-based
[13] = molecular target: T2, Amylin receptor AMY3; CALCR/RAMP3; test: Agonist activity at human amylin receptor expressed in BHK570 cells co-expressing RAMP3 assessed as increase in intracellular cAMP concentration incubated for 3 hrs in presence of 10% FBS by CRE luciferase reporter gene assay; format: functional, cell-based

Structure (SMILES)	solubility at 18 h [1] [µM]	solubility at 18 h [2] [µM]	pEC50 (Calcitonin receptor [3])	solubility at 18 h [4] [µM]	pIC50 [5]	solubility at 18 h [6] [µM]	solubility at 18 h [7] [µM]	pEC50 (Calcitonin receptor [8])	solubility at 18 h [9] [µM]	solubility at 18 h [10] [µM]	solubility at 18 h [11] [µM]	pEC50 [12]	pEC50 [13]
CC(C)C[C@H](NC(=O)[C@H](CCCNC(=N)N)NC(=O)CNC(=O)[C@H](CC(C)C)NC(=O)[C@@H](NC(=O)[C@H](C)NC(=O)[C@@H](NC(=O)[C@@H](NC(=O)[C@H](CC(C)C)NC(=O)[C@H](CCC(=O)O)NC(=O)[C@H](CO)NC(=O)[C@H](C)NC(=O)CC[C@H](NC(=O)CCCCCCCCCCCCCCCCC(=O)O)C(=O)O)[C@@H](C)O)[C@@H](C)O)C(C)C)C(=O)N[C@@H](CCC(=O)O)C(=O)N[C@@H](C)C(=O)N[C@@H](CCC(=O)O)C(=O)N[C@@H](CC(C)C)C(=O)N[C@@H](Cc1cnc[nH]1)C(=O)N[C@@H](CCC(=O)O)C(=O)N[C@@H](CC(C)C)C(=O)N[C@H](C(=O)N[C@H](C(=O)N[C@@H](CC(C)C)C(=O)N1CCC[C@H]1C(=O)N[C@@H](CCCNC(=N)N)C(=O)N[C@H](C(=O)N[C@@H](CCC(=O)O)C(=O)N[C@H](C(=O)NCC(=O)N[C@H](C(=O)NCC(=O)N[C@H](C(=O)N1CCC[C@H]1C(N)=O)[C@@H](C)O)[C@@H](C)O)[C@@H](C)O)[C@@H](C)O)[C@@H](C)O)[C@@H](C)O ({C18 diacid-γGlu}-ASELTTAVLGRLEAELHELTTLPRTETGTGTP-NH2)	≥ 200	≥ 200	10.18	≥ 200	7.71	≥ 200	≥ 200	10.51	≥ 200	≥ 200	≥ 200	–	–
CC(C)C[C@H](NC(=O)[C@H](C)NC(=O)[C@H](C)NC(=O)[C@@H](NC(=O)[C@H](CO)NC(=O)[C@H](CC(C)C)NC(=O)[C@H](CCC(=O)O)NC(=O)[C@H](CO)NC(=O)[C@H](C)NC(=O)CC[C@H](NC(=O)CCCCCCCCCCCCCCCCCCC(=O)O)C(=O)O)[C@@H](C)O)C(=O)NCC(=O)N[C@@H](CCCNC(=N)N)C(=O)N[C@@H](CC(C)C)C(=O)N[C@@H](CO)C(=O)N[C@@H](CCC(=O)O)C(=O)N[C@@H](CCC(=O)O)C(=O)N[C@@H](CC(C)C)C(=O)N[C@@H](Cc1cnc[nH]1)C(=O)N[C@@H](CCC(=O)O)C(=O)N[C@@H](CC(C)C)C(=O)N[C@@H](C)C(=O)N[C@H](C(=O)N[C@@H](CC(C)C)C(=O)N1CCC[C@H]1C(=O)N[C@@H](CCCNC(=N)N)C(=O)N[C@H](C(=O)N[C@@H](CCC(=O)O)C(=O)N[C@H](C(=O)NCC(=O)N[C@@H](CO)C(=O)NCC(=O)N[C@@H](CO)C(=O)N1CCC[C@H]1C(N)=O)[C@@H](C)O)[C@@H](C)O)[C@@H](C)O ({C20 diacid-γGlu}-ASELSTAALGRLSEELHELATLPRTETGSGSP-NH2)	≥ 200	≥ 200	10.60	≥ 200	–	≥ 200	≥ 200	–	≥ 200	≥ 200	≥ 200	10.39	10.07
CC(C)C[C@H](NC(=O)[C@H](C)NC(=O)[C@H](C)NC(=O)[C@@H](NC(=O)[C@H](CO)NC(=O)[C@H](CC(C)C)NC(=O)[C@H](CCC(=O)O)NC(=O)[C@H](CO)NC(=O)[C@H](C)NC(=O)CC[C@H](NC(=O)CCCCCCCCCCCCCCCCC(=O)O)C(=O)O)[C@@H](C)O)C(=O)NCC(=O)N[C@@H](CCCNC(=N)N)C(=O)N[C@@H](CC(C)C)C(=O)N[C@@H](CO)C(=O)N[C@@H](C)C(=O)N[C@@H](CCC(=O)O)C(=O)N[C@@H](CC(C)C)C(=O)N[C@@H](Cc1cnc[nH]1)C(=O)N[C@@H](CCC(=O)O)C(=O)N[C@@H](CC(C)C)C(=O)N[C@@H](C)C(=O)N[C@H](C(=O)N[C@@H](CC(C)C)C(=O)N1CCC[C@H]1C(=O)N[C@@H](CCCNC(=N)N)C(=O)N[C@H](C(=O)N[C@@H](CCC(=O)O)C(=O)N[C@H](C(=O)NCC(=O)N[C@@H](CO)C(=O)N1CCC[C@H]1C(=O)N[C@@H](CO)C(=O)N1CCC[C@H]1C(N)=O)[C@@H](C)O)[C@@H](C)O)[C@@H](C)O ({C18 diacid-γGlu}-ASELSTAALGRLSAELHELATLPRTETGSPSP-NH2)	≥ 200	≥ 200	11.10	≥ 200	–	≥ 200	≥ 200	10.72	≥ 200	≥ 200	≥ 200	10.89	10.41
CC(C)C[C@H](NC(=O)[C@H](C)NC(=O)[C@H](C)NC(=O)[C@@H](NC(=O)[C@H](CO)NC(=O)[C@H](CC(C)C)NC(=O)[C@H](CCC(=O)O)NC(=O)[C@H](CO)NC(=O)[C@H](C)NC(=O)[C@H](C)NC(=O)[C@H](CCC(=O)O)NC(=O)CC[C@H](NC(=O)CCCCCCCCCCCCCCCCCCC(=O)O)C(=O)O)[C@@H](C)O)C(=O)NCC(=O)N[C@@H](CCCNC(=N)N)C(=O)N[C@@H](CC(C)C)C(=O)N[C@@H](CO)C(=O)N[C@@H](C)C(=O)N[C@@H](CCC(=O)O)C(=O)N[C@@H](CC(C)C)C(=O)N[C@@H](Cc1cnc[nH]1)C(=O)N[C@@H](CCC(=O)O)C(=O)N[C@@H](CC(C)C)C(=O)N[C@@H](C)C(=O)N[C@H](C(=O)N[C@@H](Cc1ccc(O)cc1)C(=O)N1CCC[C@H]1C(=O)N[C@@H](CCCNC(=N)N)C(=O)N[C@H](C(=O)N[C@@H](CCC(=O)O)C(=O)N[C@H](C(=O)NCC(=O)N[C@@H](CO)C(=O)NCC(=O)N[C@@H](CO)C(=O)N1CCC[C@H]1C(N)=O)[C@@H](C)O)[C@@H](C)O)[C@@H](C)O ({C20 diacid-γGlu}-EAASELSTAALGRLSAELHELATYPRTETGSGSP-NH2)	≥ 200	≥ 200	10.82	≥ 200	8.72	≥ 200	≥ 200	9.95	≥ 200	≥ 200	≥ 200	10.77	–
CC(C)C[C@H](NC(=O)[C@H](C)NC(=O)[C@H](C)NC(=O)[C@@H](NC(=O)[C@H](CO)NC(=O)[C@H](CC(C)C)NC(=O)[C@H](CCC(=O)O)NC(=O)[C@H](CO)NC(=O)[C@H](C)NC(=O)CC[C@H](NC(=O)CCCCCCCCCCCCCCCCCCC(=O)O)C(=O)O)[C@@H](C)O)C(=O)NCC(=O)N[C@@H](CCCNC(=N)N)C(=O)N[C@@H](CC(C)C)C(=O)N[C@@H](CO)C(=O)N[C@@H](C)C(=O)N[C@@H](CCC(=O)O)C(=O)N[C@@H](CC(C)C)C(=O)N[C@@H](Cc1cnc[nH]1)C(=O)N[C@@H](CCC(=O)O)C(=O)N[C@@H](CC(C)C)C(=O)N[C@@H](C)C(=O)N[C@H](C(=O)N[C@@H](CC(C)C)C(=O)N1CCC[C@H]1C(=O)N[C@@H](CCCNC(=N)N)C(=O)N[C@H](C(=O)N[C@@H](CCC(=O)O)C(=O)N[C@H](C(=O)NCC(=O)N[C@H](C(=O)NCC(=O)N[C@H](C(=O)N1CCC[C@H]1C(N)=O)[C@@H](C)O)[C@@H](C)O)[C@@H](C)O)[C@@H](C)O)[C@@H](C)O ({C20 diacid-γGlu}-ASELSTAALGRLSAELHELATLPRTETGTGTP-NH2)	≥ 200	≥ 200	10.35	≥ 200	9.22	≥ 200	≥ 200	10.25	≥ 200	≥ 200	≥ 200	10.30	–
